Broadly, the IC50 is the concentration at which inhibition is half-maximal. The inhibition is the relative decrease from the control value, in per cent.

One compound from publication PMC11233931, “Remodeling tumor‐associated macrophage for anti‐cancer effects by rational design of irreversible inhibition of mitogen‐activated protein kinase‐activated protein kinase 2” (MedComm, 2024) can be followed below.

Like-named read-outs stand apart in the source and are kept apart here. A value given as a limit tells only on which side of the number the result lay.

One data set has as its system p-Hsp27. In words: Cellular washout assay, p-Hsp27 by western blot. The data set is classed as cell-based. The settings on record: 1 h pretreatment, then LPS. How it is done: FIGURE 4 Targeting cellular MK2 signaling with irreversible inhibition by compound 11. (A and B) RT‐PCR analysis of IL‐1β, TNF‐α, and IL‐6 expression in Lipopolysaccharides (LPS)‐stimulated THP‐1 (A) and RAW264.7 (B) Cells, with pre‐treatment of compound 11 for 3 h followed by LPS (3 h) stimulation. (C) The inhibitory effects of compound 11 on TNF‐α and IL‐6 production in LPS‐stimulated RAW264.7 macrophages for 24 h, measured by ELISA. (D and E) Compound 11, alongside CC‐99677 and PF‐3644022, suppressed MK2 pathway activation, validated through western blot analysis post‐LPS stimulation. Cells were preincubated with the specified compounds for 1 h prior to LPS stimulation (100 ng/mL, 30 min). (F) Distinguishes the mode of action between compound 11 and CC‐99677. The complex structure of a small molecule and MK2 (3R2Y) with the same parent nucleus as compound 11 is shown in cyans, and the complex structure of a small molecule and MK2 (3FYJ) with the same parent nucleus as CC‐99677 is shown in orange. (G–I) The effect of indicated inhibitor on Hsp27 phosphorylation following inhibitor washout. Cells were pretreated with indicated compounds for 1 h and then washed to remove free compound and incubated for a further indicated time before activation with LPS. In (A–C), LPS (100 ng/mL) served as the stimulation control, while untreated cells were the baseline control. The data represent as mean ± SD from triplicates, with statistical analysis conducted via one‐way analysis of variance (ANOVA) (^## p < 0.01, ^### p < 0.001 vs. stimulation control; ^***p < 0.001 vs. baseline control).
Furthermore, to validate the irreversible mechanism of action of compound 11 at the cellular level, we performed a cellular washout assay and assessed p‐Hsp27 levels. The established MK2 irreversible inhibitor CC‐99677 served as positive control, while the reversible ATP‐competitive inhibitor PF‐3644022 was used as negative control. […] In contrast, only 1 h after PF‐3644022 washout, p‐Hsp27 level was totally recovered (Figure 4I).
After the treatment outlined in the figure legends, cells were lysed using 1× sodium dodecyl sulfate (SDS) solution. The lysates were then subjected to SDS‐polyacrylamide gel electrophoresis for separation, followed by transferring onto nitrocellulose membranes. The membranes were incubated with primary antibodies specific to phospho‐MK2, phospho‐Hsp27, MK2, Hsp27, GAPDH, and β‐actin (Cell Signaling Technology), followed by horseradish peroxidase‐conjugated anti‐mouse or anti‐rabbit IgG secondary antibodies. Protein bands were detected using an enhanced chemiluminescence detection reagent (Thermo Fisher Scientific).

Data set [1] is described as follows: Cell viability assay (CCK-8), THP-1. The class given is cell-based. Particulars: THP-1 cells (monocyte), THP-1, human monocyte, read-out: IC50 (μM) mean ± SD, cytotoxicity. On the procedure: In cellular experiments, cells are seeded into either 6-well or 96-well plates and incubated overnight, proceeding with treatments as described in the figure legends or methods section. The cell inoculation numbers are outlined as follows: For assays measuring cell viability, between 3,000 to 5,000 cells are seeded per well in 96-well plates. For other cellular assays, the seeding density ranges from 5×10^5 to 1×10^6 cells per well in 6-well plates.
Cells was plated into 96-well plates and incubated overnight prior to introduction of varying concentrations of compounds or control solvent. Following a 72-hour exposure period, cell viability was determined using a Cell Counting Kit-8 assay (Life-iLab, China). Dose-response curves were fitted using a four-parameter method facilitated by SoftMax Pro, which was subsequently used for the computation of IC50 values.

In data set [2] the test system is p38. Description: Eurofins kinase selectivity profile, p38. The class given is biochemical, human. On the procedure:
(§1) Subsequently, to ascertain whether the high potency of compound 11 was specific for MK2, an additional 380 human recombinant protein kinases were screened.
(§2) To assess the impact of various compounds on MK2 kinase activity, we utilized the ADP‐Glo Assay Kit (Promega) following the manufacturer's instructions. Luminescence measurements were taken using a SpectraMax Paradigm reader. The inhibition percentage was calculated using the following formula: ((specific signalDMSO control − specific signal inhibitor)/(specific signalDMSO control)) × 100%. The IC50 values were determined employing dose–response curve fitting via Prism (Graph Pad). Additionally, Eurofins company (Celle Lévescault) conducted the analysis on compound 11’s inhibitory activity against 380 other human recombinant kinases at various concentrations.

Data set [3] concerns the target T1, p38 (Homo sapiens, UniProt Q16539).
T1 construct: purchased Eurofins (Celle Lévescault)
In words: Eurofins kinase selectivity profile, p38. The class given is biochemical. On the procedure:
as §1, §2

The target of data set [4] is T2, p38 (Homo sapiens, UniProt O15264).
T2 construct: purchased Eurofins (Celle Lévescault)
T2 sequence (O15264 1-365): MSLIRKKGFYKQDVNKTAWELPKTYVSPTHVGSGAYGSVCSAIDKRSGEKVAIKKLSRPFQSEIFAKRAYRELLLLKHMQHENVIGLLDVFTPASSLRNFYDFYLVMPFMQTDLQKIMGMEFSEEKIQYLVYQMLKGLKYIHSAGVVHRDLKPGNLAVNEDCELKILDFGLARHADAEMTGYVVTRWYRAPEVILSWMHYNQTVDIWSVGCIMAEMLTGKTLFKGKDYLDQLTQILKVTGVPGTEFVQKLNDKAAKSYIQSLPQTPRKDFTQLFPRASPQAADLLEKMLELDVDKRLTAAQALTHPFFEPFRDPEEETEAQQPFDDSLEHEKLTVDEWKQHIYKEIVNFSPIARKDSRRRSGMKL
In words: Eurofins kinase selectivity profile, p38. The data set is classed as biochemical. The settings on record: p38-delta/SAPK4(h), read-out: Inhibition rate (%). How it is done:
as §1, §2

The test system of another data set is MC38 tumor. Description: In vivo antitumor evaluation in MC38 tumor model. On the set-up: species or system C57BL/6 mice. How it is done:
C57BL/6 mice, aged 6 weeks, were house and cared for in a controlled, specific pathogen‐free environment. MC38 tumor cells (3.5 × 10[5] in 100 µL) were administered to the mice via subcutaneous injection into the right flanks. Upon reaching a tumor volume between 50 and 100 mm^3, mice were randomized and assigned to either the vehicle control group or the specified treatment group (n = 7/group). The details regarding the administration of inhibitors and the measurement of tumors are delineated in the Supporting Information Methods.
The mice then received intraperitoneal injections of either the vehicle control or compound 11 (at dosages of 25 or 50 mg/kg) twice daily for 10 days. Tumor size was gauged every three days with a microcaliper, and the tumor volume (TV) was estimated using the formula: TV = (length × width^2)/2. Additionally, the individual Tumor Growth Inhibition value (TGI) was assessed on the last day of the experiment for mice treated with the drug in comparison to those treated with the vehicle. The formula used was 100 × {1 - [(VTreated Final day -VTreated Day 0)/(VControl Final day -VControl Day 0)].

T1 sequence (Q16539 2-360): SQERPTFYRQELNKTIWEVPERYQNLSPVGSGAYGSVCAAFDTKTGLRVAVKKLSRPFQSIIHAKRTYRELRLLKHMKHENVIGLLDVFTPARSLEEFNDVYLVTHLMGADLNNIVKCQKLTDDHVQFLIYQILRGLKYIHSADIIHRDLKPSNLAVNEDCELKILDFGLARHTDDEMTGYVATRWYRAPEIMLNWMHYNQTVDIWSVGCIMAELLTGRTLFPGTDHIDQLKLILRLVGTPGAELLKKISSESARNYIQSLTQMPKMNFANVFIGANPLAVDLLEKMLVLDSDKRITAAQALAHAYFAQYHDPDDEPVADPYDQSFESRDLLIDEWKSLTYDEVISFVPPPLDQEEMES

For `C=CC(=O)Nc1cc(-c2cc(-c3cc4c([nH]3)CCNC4=O)ccn2)ccc1OC(F)(F)F` [compound 11], in the data set on p-Hsp27 (3 h), the “p-Hsp27 level 3 h after inhibitor washout” value is reported as “still significantly inhibited”. For the same compound, the “time after inhibitor washout at which p-Hsp27 level recovered” value in the data set with p-Hsp27 is reported as 24 h. The 50% inhibitory concentration (IC50) at 72 h in data set [1] came to 34.7 ± 0.4 µM. Moreover, the “selectivity for MK2 over p38” value in the data set with p38 [2] is reported as “over 434 fold”. The IC50 on p38 [3] was over 1000 nM. In addition, the inhibition at 1 µM on p38 [3] (1 µM, read-out: inhibition rate on p38 kinase) is under 10%; on p38 [3] (p38-alpha/SAPK2a(h), 1000 nM, read-out: Inhibition rate) it was -5%; on p38 [4] (1000 nM), 8%. The inhibition at 0.01 µM at p38 [3] (p38-alpha/SAPK2a(h), 10 nM, read-out: Inhibition rate) is 0%; on p38 [4] (10 nM), -3%. Also, the inhibition at 0.1 µM on p38 [3] (p38-alpha/SAPK2a(h), 100 nM, read-out: Inhibition rate) was -3%; at p38 [4] (100 nM), -6%. In addition, the “tumor growth inhibition rate (TGI)” value with MC38 tumor (25 mg/kg bid x10, ip) worked out at 47.5%; in the data set on MC38 tumor (50 mg/kg bid x10, ip), 64.0%.
